ChEMBL document CHEMBL4020828, “Design and Syntheses of Highly Potent Teixobactin Analogues against Staphylococcus aureus, Methicillin-Resistant Staphylococcus aureus (MRSA), and Vancomycin-Resistant Enterococci (VRE) in Vitro and in Vivo” (J Med Chem, 2018)
Values after ≈ are worked out from the molar mass of the structure shown. Positions of bridges follow the written chain, without caps; N, C: chain ends. Non-standard residues stand in square brackets, D forms with d. Residues, ends and D or L forms follow the SMILES beside them. dNMeF = CN[C@H](Cc1ccccc1)C(=O)O

Legend:
Staphylococcus aureus [1] = assay: Antibacterial activity against methicillin-resistant Staphylococcus aureus after 24 hrs; assay type: functional
Staphylococcus aureus [2] = assay: Antibacterial activity against methicillin-resistant Staphylococcus aureus isolate 1003 after 24 hrs; assay type: functional; conditions: isolate 1003, 24 h
[3] = system: Staphylococcus saprophyticus; assay: Antibacterial activity against Staphylococcus saprophyticus ATCC 49907 after 24 hrs; assay type: functional; conditions: ATCC 49907, 24 h
Enterococcus faecalis [4] = assay: Antibacterial activity against vancomycin-resistant Enterococcus faecalis isolate 1004 after 24 hrs; assay type: functional; conditions: isolate 1004, 24 h
Enterococcus faecalis [5] = assay: Antibacterial activity against vancomycin-resistant Enterococcus faecalis isolate 1001 after 24 hrs; assay type: functional; conditions: isolate 1001, 24 h
[6] = system: Staphylococcus saprophyticus; assay: Antibacterial activity against Staphylococcus saprophyticus ATCC 49453 after 24 hrs; assay type: functional; conditions: ATCC 49453, 24 h
Enterococcus faecalis [7] = assay: Antibacterial activity against vancomycin-resistant Enterococcus faecalis isolate 1008 after 24 hrs; assay type: functional; conditions: isolate 1008, 24 h
[8] = system: Bacillus subtilis (Bacillus subtilis); assay: Antibacterial activity against Bacillus subtilis ATCC 6633 after 24 hrs; conditions: ATCC 6633, 24 h
Enterococcus faecalis [9] = assay: Antibacterial activity against vancomycin-resistant Enterococcus faecalis ATCC 29212 after 24 hrs; assay type: functional; conditions: ATCC 29212, 24 h
Staphylococcus aureus [10] = assay: Antibacterial activity against Staphylococcus aureus ATCC 29213 after 24 hrs; assay type: functional; conditions: ATCC 29213, 24 h
[11] = system: Staphylococcus saprophyticus; assay: Antibacterial activity against Staphylococcus saprophyticus ATCC 15305 after 24 hrs; assay type: functional; conditions: ATCC 15305, 24 h
Staphylococcus aureus [12] = assay: Antibacterial activity against Staphylococcus aureus 4299 after 24 hrs; assay type: functional; conditions: Staphylococcus aureus, 4299, 24 h
Staphylococcus aureus [13] = assay: Antibacterial activity against methicillin-resistant Staphylococcus aureus isolate 21455 after 24 hrs; assay type: functional; conditions: isolate 21455, 24 h
[14] = system: Staphylococcus saprophyticus; assay: Antibacterial activity against Staphylococcus saprophyticus ATCC BAA 750 after 24 hrs; assay type: functional; conditions: ATCC BAA 750, 24 h
Staphylococcus aureus [15] = assay: Antibacterial activity against methicillin-resistant Staphylococcus aureus isolate 42412 after 24 hrs; assay type: functional; conditions: isolate 42412, 24 h
Enterococcus faecalis [16] = assay: Antibacterial activity against vancomycin-resistant Enterococcus faecalis isolate 1002 after 24 hrs; assay type: functional; conditions: isolate 1002, 24 h
Enterococcus faecalis [17] = assay: Antibacterial activity against vancomycin-resistant Enterococcus faecalis ATCC 700802 after 24 hrs; assay type: functional; conditions: ATCC 700802, 24 h
Staphylococcus aureus [18] = assay: Antibacterial activity against methicillin-resistant Staphylococcus aureus ATCC 700699 after 24 hrs; assay type: functional; conditions: ATCC 700699, 24 h
Bacillus cereus = assay: Antibacterial activity against Bacillus cereus ATCC 11788 after 24 hrs; assay type: functional; conditions: ATCC 11788, 24 h
[19] = system: Staphylococcus epidermidis; assay: Antibacterial activity against Staphylococcus epidermidis 12228 after 24 hrs; assay type: functional; conditions: Staphylococcus epidermidis, 12228, 24 h
Staphylococcus aureus [20] = assay: Antibacterial activity against methicillin-resistant Staphylococcus aureus ATCC 33591 after 24 hrs; assay type: functional; conditions: ATCC 33591, 24 h
Staphylococcus aureus [21] = assay: Antibacterial activity against methicillin-sensitive Staphylococcus aureus after 24 hrs; assay type: functional

Compound	MIC (Staphylococcus aureus [2])	MIC [3]	MIC (Enterococcus faecalis [4])	MIC (Enterococcus faecalis [5])	MIC [6]	MIC (Enterococcus faecalis [7])	MIC [8]	MIC (Enterococcus faecalis [9])	MIC (Staphylococcus aureus [10])	MIC [11]	MIC (Staphylococcus aureus [12])	MIC (Staphylococcus aureus [13])	MIC [14]	MIC (Staphylococcus aureus [15])	MIC (Enterococcus faecalis [16])	MIC (Enterococcus faecalis [17])	MIC (Staphylococcus aureus [18])	MIC (Bacillus cereus)	MIC [19]	MIC (Staphylococcus aureus [20])	further results
CC[C@@H](C)[C@@H](NC(=O)[C@@H](CCC(N)=O)NC(=O)[C@H](CO)NC(=O)[C@@H](NC(=O)[C@@H](Cc1ccccc1)NC)[C@@H](C)CC)C(=O)N[C@H](C(=O)N[C@@H](CO)C(=O)N[C@H]1C(=O)N[C@@H](C)C(=O)N[C@@H](Cc2ccccc2)C(=O)N[C@@H]([C@@H](C)CC)C(=O)O[C@H]1C)[C@@H](C)CC																					MIC (Staphylococcus aureus [1]): 2 µg/mL (≈ 1.62 µM)
CC[C@@H](C)[C@@H](NC(=O)[C@@H](CCCNC(=N)N)NC(=O)[C@H](CO)NC(=O)[C@@H](NC(=O)[C@@H](Cc1ccccc1)NC)[C@@H](C)CC)C(=O)N[C@H](C(=O)N[C@@H](CO)C(=O)N[C@H]1C(=O)N[C@@H](CCCNC(=N)N)C(=O)N[C@@H](CC(C)C)C(=O)N[C@@H]([C@@H](C)CC)C(=O)O[C@H]1C)[C@@H](C)CC (H-[dNMeF]IS[dR][dI]IS[dT]RLI; ester 8-C)	0.5 µg/mL (≈ 0.38 µM)	< 0.0625 µg/mL	1 µg/mL (≈ 0.761 µM)	1 µg/mL (≈ 0.761 µM)	< 0.0625 µg/mL	1 µg/mL (≈ 0.761 µM)	< 0.0625 µg/mL	1 µg/mL (≈ 0.761 µM)	1 µg/mL (≈ 0.761 µM)	< 0.0625 µg/mL	0.5 µg/mL (≈ 0.38 µM)	1 µg/mL (≈ 0.761 µM)	< 0.0625 µg/mL	1 µg/mL (≈ 0.761 µM)	1 µg/mL (≈ 0.761 µM)	1 µg/mL (≈ 0.761 µM)	1 µg/mL (≈ 0.761 µM)	1 µg/mL (≈ 0.761 µM)	< 0.0625 µg/mL	1 µg/mL (≈ 0.761 µM)	
CC[C@@H](C)[C@@H](NC(=O)[C@@H](CCCNC(=N)N)NC(=O)[C@H](CCCNC(=N)N)NC(=O)[C@@H](NC(=O)[C@@H](Cc1ccccc1)NC)[C@@H](C)CC)C(=O)N[C@H](C(=O)N[C@@H](CO)C(=O)N[C@H]1C(=O)N[C@@H](CCCNC(=N)N)C(=O)N[C@@H](CC(C)C)C(=O)N[C@@H]([C@@H](C)CC)C(=O)O[C@H]1C)[C@@H](C)CC (H-[dNMeF]IR[dR][dI]IS[dT]RLI; ester 8-C)	2 µg/mL (≈ 1.45 µM)	< 0.0625 µg/mL	4 µg/mL (≈ 2.89 µM)	2 µg/mL (≈ 1.45 µM)	< 0.0625 µg/mL	8 µg/mL (≈ 5.78 µM)	< 0.0625 µg/mL	4 µg/mL (≈ 2.89 µM)	1 µg/mL (≈ 0.723 µM)	0.25 µg/mL (≈ 0.181 µM)	1 µg/mL (≈ 0.723 µM)	2 µg/mL (≈ 1.45 µM)	< 0.0625 µg/mL	2 µg/mL (≈ 1.45 µM)	8 µg/mL (≈ 5.78 µM)	4 µg/mL (≈ 2.89 µM)	2 µg/mL (≈ 1.45 µM)	1 µg/mL (≈ 0.723 µM)	< 0.0625 µg/mL	1 µg/mL (≈ 0.723 µM)	
CC[C@@H](C)[C@@H](NC(=O)[C@@H](CCC(N)=O)NC(=O)[C@H](CO)NC(=O)[C@@H](NC(=O)[C@@H](Cc1ccccc1)NC)[C@@H](C)CC)C(=O)N[C@H](C(=O)N[C@@H](CO)C(=O)N[C@H]1C(=O)N[C@@H](CCCNC(=N)N)C(=O)N[C@@H]([C@@H](C)CC)C(=O)N[C@@H]([C@@H](C)CC)C(=O)O[C@H]1C)[C@@H](C)CC	0.5 µg/mL (≈ 0.389 µM)	< 0.0625 µg/mL	1 µg/mL (≈ 0.777 µM)	1 µg/mL (≈ 0.777 µM)	< 0.0625 µg/mL	1 µg/mL (≈ 0.777 µM)	0.125 µg/mL (≈ 0.0972 µM)	1 µg/mL (≈ 0.777 µM)	1 µg/mL (≈ 0.777 µM)	< 0.0625 µg/mL	1 µg/mL (≈ 0.777 µM)	0.5 µg/mL (≈ 0.389 µM)	< 0.0625 µg/mL	0.125 µg/mL (≈ 0.0972 µM)	1 µg/mL (≈ 0.777 µM)	1 µg/mL (≈ 0.777 µM)	1 µg/mL (≈ 0.777 µM)	0.5 µg/mL (≈ 0.389 µM)	< 0.0625 µg/mL	0.25 µg/mL (≈ 0.194 µM)	
CC[C@@H](C)[C@@H](NC(=O)[C@@H](CCC(N)=O)NC(=O)[C@H](CO)NC(=O)[C@@H](NC(=O)[C@@H](Cc1ccccc1)NC)[C@@H](C)CC)C(=O)N[C@H](C(=O)N[C@@H](CO)C(=O)N[C@H]1C(=O)N[C@@H](C)C(=O)N[C@@H](C)C(=O)N[C@@H]([C@@H](C)CC)C(=O)O[C@H]1C)[C@@H](C)CC																					MIC (Staphylococcus aureus [21]): 1 µg/mL (≈ 0.863 µM); MIC (Staphylococcus aureus [1]): 1 to 2 µg/mL (≈ 0.863 to 1.73 µM)
